Reference: paper PMC4342491, “Cross-talk between Two Nucleotide-signaling Pathways in Staphylococcus aureus” (The Journal of Biological Chemistry, 2015)

What was measured:
GdpP (rGdpP) [1] = target: T1, GdpP (rGdpP) (Staphylococcus aureus, UniProt Q2G2T6); experiment: TLC of radiolabelled c-di-AMP hydrolysis to pApA; assay type: biochemical; settings: labelled compound; 20 μM c-di-AMP, 1 μM enzyme, 50 mM Tris pH 8.5, 0.1 mM MnCl2, 20 mM KCl, room temperature, no ppGpp
T1 construct: gene SAOUHSC_00015; residues 84-655, N-terminal transmembrane helices removed
T1 sequence (Q2G2T6 84-655): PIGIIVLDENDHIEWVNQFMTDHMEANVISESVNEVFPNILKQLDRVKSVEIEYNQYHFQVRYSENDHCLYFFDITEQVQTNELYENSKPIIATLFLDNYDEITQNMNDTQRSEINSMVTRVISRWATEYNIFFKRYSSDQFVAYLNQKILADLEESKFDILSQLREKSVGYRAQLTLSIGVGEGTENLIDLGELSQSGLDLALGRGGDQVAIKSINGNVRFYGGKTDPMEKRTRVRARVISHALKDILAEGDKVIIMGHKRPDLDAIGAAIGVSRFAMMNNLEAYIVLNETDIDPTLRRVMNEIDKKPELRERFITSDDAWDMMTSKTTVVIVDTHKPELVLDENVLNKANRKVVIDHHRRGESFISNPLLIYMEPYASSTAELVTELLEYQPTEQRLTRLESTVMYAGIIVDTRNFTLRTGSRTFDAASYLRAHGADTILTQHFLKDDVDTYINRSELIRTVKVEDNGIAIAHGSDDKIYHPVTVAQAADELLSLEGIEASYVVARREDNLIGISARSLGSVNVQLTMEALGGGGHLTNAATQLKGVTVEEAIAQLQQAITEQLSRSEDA

GdpP (rGdpP) [2] = target: T1, GdpP (rGdpP); experiment: TLC of […]c-di-AMP hydrolysis to pApA, dose-response fit; assay type: biochemical

| SMILES | % pApA formation (GdpP (rGdpP) [1]) | Ki (GdpP (rGdpP) [2]) [µM] |
| --- | --- | --- |
| Nc1ncnc2c1ncn2[C@@H]1O[C@@H]2COP(=O)(O)O[C@H]3[C@@H](O)[C@H](n4cnc5c(N)ncnc54)O[C@@H]3COP(=O)(O)O[C@H]2[C@H]1O [c-di-AMP] | rGdpP was able to efficiently hydrolyze c-di-AMP in the absence of ppGpp | – |
| Nc1nc2c(ncn2[C@@H]2O[C@H](COP(=O)(O)OP(=O)(O)O)[C@@H](OP(=O)(O)OP(=O)(O)O)[C@H]2O)c(=O)[nH]1 [ppGpp] | – | 130 ± 42.8 |
